Assay results published in ChEMBL document CHEMBL3739348, “Novel pyrrole derivatives as selective CHK1 inhibitors: design, regioselective synthesis and molecular modeling” (Medchemcomm, 2015).

Experiments:
[1] = target: Tyrosine-protein kinase Lyn (Homo sapiens) (UniProt P07948); assay: Inhibition of LYN (unknown origin) at 30 uM by microfluidic assay relative to control
[2] = target: T1, Serine/threonine-protein kinase Chk1 (Homo sapiens) (UniProt O14757); assay: Inhibition of CHK1 (unknown origin) at 30 uM by microfluidic assay relative to control
T1 sequence (whole entry): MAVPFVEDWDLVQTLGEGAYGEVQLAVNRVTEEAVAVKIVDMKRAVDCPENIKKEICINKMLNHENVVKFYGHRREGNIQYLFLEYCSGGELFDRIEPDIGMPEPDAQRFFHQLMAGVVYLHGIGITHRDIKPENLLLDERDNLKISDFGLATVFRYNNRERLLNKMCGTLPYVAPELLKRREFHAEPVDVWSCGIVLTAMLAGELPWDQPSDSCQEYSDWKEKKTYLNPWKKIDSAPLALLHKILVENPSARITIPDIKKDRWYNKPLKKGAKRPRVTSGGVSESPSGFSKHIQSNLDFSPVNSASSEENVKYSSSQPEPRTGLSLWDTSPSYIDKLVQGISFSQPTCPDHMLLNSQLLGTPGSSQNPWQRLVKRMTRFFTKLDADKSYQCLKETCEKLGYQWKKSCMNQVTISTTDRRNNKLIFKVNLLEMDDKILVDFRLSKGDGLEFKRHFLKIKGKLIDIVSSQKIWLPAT

[3] = target: Mitogen-activated protein kinase 1 (Homo sapiens) (UniProt P28482); assay: Inhibition of Erk2 (unknown origin) at 30 uM by microfluidic assay relative to control
Chain of Mitogen-activated protein kinase 1 (Homo sapiens) (P28482 whole entry): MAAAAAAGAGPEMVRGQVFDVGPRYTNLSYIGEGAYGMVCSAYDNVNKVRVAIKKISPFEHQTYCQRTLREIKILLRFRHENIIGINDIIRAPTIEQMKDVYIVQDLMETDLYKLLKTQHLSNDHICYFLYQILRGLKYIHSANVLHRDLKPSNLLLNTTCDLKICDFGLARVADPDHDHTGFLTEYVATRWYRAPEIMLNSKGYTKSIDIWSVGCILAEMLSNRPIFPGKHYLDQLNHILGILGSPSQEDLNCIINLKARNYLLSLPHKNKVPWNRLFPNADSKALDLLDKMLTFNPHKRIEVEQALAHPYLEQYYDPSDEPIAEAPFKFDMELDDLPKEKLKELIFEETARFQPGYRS

[4] = target: Tyrosine-protein kinase Lck (Homo sapiens) (UniProt P06239); assay: Inhibition of LCK (unknown origin) at 30 uM by microfluidic assay relative to control
[5] = target: Epidermal growth factor receptor (Homo sapiens, UniProt P00533); assay: Inhibition of EGFR (unknown origin) by microfluidic assay relative to control
[6] = target: Hepatocyte growth factor receptor (Homo sapiens) (UniProt P08581); assay: Inhibition of MET (unknown origin) at 30 uM by microfluidic assay relative to control
[7] = target: Protein kinase C (PKC) (Homo sapiens) (UniProt O94806+P41743+P17252+P05129+Q05655+P05771+Q05513+Q02156+P24723+Q15139+Q04759); assay: Inhibition of PKC (unknown origin) at 30 uM by microfluidic assay relative to control
[8] = target: Insulin receptor (Homo sapiens) (UniProt P06213); assay: Inhibition of InsR (unknown origin) at 30 uM by microfluidic assay relative to control
Chain of Insulin receptor (Homo sapiens) (P06213 28-758 limits assumed): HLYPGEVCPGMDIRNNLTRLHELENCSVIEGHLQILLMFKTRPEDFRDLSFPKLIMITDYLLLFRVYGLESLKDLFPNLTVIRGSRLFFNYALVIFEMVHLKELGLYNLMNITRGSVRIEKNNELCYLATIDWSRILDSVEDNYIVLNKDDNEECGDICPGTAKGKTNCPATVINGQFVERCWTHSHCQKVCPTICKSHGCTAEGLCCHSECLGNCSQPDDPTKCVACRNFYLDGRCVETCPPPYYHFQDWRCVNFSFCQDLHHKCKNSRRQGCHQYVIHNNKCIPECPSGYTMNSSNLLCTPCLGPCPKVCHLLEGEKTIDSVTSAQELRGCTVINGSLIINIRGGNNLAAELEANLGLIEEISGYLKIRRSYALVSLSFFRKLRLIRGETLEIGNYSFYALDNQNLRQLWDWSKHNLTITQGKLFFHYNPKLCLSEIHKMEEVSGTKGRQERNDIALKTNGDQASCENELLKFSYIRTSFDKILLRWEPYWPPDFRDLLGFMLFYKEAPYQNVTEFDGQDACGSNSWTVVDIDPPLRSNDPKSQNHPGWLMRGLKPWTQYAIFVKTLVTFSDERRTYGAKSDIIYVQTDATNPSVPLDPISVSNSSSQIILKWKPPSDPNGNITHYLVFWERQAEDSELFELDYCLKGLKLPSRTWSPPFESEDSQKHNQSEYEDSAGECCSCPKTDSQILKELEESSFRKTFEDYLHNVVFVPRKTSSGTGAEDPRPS
Chain of Insulin receptor (Homo sapiens) (P06213 763-1382 limits assumed): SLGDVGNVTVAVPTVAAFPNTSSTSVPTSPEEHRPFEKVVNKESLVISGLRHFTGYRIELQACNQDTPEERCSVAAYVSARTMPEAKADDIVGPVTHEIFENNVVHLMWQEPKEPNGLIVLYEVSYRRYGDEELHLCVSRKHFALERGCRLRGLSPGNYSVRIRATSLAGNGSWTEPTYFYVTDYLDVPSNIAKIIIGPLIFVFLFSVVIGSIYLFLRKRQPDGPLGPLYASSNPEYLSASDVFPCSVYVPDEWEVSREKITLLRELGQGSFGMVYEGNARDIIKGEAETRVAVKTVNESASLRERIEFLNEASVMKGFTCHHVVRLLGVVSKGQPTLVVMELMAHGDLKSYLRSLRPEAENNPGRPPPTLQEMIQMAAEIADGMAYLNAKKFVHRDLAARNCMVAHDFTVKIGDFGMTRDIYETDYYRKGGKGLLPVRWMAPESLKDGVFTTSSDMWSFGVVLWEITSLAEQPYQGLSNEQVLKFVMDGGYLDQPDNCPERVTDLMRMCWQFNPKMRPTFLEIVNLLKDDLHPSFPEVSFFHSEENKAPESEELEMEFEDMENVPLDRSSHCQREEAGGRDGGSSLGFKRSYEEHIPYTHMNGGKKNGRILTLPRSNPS

[9] = target: Tyrosine-protein kinase Fyn (Homo sapiens) (UniProt P06241); assay: Inhibition of FYN (unknown origin) at 30 uM by microfluidic assay relative to control
[10] = target: Mitogen-activated protein kinase 3 (Homo sapiens) (UniProt P27361); assay: Inhibition of Erk1 (unknown origin) at 30 uM by microfluidic assay relative to control
Chain of Mitogen-activated protein kinase 3 (Homo sapiens) (P27361 whole entry): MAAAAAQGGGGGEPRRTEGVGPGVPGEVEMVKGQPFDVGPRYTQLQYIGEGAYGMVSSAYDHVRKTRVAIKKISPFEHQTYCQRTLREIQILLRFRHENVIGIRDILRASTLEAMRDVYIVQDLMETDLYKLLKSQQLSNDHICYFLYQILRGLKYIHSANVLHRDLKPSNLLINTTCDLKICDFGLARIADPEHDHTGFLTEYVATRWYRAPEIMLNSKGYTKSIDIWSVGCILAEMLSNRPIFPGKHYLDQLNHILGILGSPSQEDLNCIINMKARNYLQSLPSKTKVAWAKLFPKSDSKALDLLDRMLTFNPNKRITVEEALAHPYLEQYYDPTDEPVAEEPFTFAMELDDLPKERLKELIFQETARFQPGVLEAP

[11] = target: Tyrosine-protein kinase ABL1 (Homo sapiens) (UniProt P00519); assay: Inhibition of ABL (unknown origin) at 30 uM by microfluidic assay relative to control
Chain of Tyrosine-protein kinase ABL1 (Homo sapiens) (P00519 whole entry): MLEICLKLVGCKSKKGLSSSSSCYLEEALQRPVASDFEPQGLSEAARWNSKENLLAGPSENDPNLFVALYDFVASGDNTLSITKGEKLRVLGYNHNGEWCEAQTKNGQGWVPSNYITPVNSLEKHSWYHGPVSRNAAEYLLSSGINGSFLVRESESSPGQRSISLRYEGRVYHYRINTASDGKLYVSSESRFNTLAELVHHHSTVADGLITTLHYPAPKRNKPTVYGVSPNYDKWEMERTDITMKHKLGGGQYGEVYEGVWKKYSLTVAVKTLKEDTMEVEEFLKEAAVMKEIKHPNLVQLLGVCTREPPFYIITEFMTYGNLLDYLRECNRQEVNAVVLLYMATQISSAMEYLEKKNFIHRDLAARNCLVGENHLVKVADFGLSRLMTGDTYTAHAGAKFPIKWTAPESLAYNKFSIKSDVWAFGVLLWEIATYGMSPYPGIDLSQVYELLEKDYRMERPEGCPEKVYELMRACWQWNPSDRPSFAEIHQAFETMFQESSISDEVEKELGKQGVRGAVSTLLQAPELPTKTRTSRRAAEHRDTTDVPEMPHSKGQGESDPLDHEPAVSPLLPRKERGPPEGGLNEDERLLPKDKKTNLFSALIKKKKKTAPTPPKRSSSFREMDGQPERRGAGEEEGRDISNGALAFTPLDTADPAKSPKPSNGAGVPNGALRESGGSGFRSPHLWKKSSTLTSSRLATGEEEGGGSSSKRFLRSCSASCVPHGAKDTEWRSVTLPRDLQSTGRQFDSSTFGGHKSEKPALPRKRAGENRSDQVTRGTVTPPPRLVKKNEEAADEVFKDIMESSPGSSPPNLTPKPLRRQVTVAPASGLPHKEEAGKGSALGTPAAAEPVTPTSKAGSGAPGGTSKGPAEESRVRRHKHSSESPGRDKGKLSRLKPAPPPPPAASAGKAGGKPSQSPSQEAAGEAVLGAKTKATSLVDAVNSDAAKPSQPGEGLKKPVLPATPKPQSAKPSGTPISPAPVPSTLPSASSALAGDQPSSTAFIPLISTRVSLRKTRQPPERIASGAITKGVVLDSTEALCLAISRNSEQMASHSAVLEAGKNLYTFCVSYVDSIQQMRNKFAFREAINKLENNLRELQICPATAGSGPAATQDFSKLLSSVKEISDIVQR

[12] = target: Mitogen-activated protein kinase 14 (Homo sapiens) (UniProt Q16539); assay: Inhibition of p38a (unknown origin) at 30 uM by microfluidic assay relative to control
Chain of Mitogen-activated protein kinase 14 (Homo sapiens) (Q16539 whole entry): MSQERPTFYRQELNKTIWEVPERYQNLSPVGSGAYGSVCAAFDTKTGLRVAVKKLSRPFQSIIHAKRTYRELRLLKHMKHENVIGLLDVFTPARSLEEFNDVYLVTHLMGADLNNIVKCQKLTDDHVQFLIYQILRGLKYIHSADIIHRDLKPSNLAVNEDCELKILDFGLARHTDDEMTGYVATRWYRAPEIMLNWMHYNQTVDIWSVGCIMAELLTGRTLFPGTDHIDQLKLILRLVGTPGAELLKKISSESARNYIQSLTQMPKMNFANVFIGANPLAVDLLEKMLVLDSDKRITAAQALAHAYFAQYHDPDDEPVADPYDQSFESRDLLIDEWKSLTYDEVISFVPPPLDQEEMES

[13] = target: T2, Serine/threonine-protein kinase Chk1 (Homo sapiens, UniProt O14757); assay: Inhibition of CHK1 (unknown origin) by microfluidic assay relative to control
T2 sequence (O14757 whole entry): T1 sequence (whole entry)

[14] = target: Proto-oncogene tyrosine-protein kinase Src (Homo sapiens) (UniProt P12931); assay: Inhibition of SRC (unknown origin) at 30 uM by microfluidic assay relative to control
[15] = target: Glycogen synthase kinase-3 (Homo sapiens) (UniProt P49840+P49841); assay: Inhibition of GSK3 (unknown origin) at 30 uM by microfluidic assay relative to control; assay type: protein assay
Chain of Glycogen synthase kinase-3 (Homo sapiens) (P49840 whole entry, looked up): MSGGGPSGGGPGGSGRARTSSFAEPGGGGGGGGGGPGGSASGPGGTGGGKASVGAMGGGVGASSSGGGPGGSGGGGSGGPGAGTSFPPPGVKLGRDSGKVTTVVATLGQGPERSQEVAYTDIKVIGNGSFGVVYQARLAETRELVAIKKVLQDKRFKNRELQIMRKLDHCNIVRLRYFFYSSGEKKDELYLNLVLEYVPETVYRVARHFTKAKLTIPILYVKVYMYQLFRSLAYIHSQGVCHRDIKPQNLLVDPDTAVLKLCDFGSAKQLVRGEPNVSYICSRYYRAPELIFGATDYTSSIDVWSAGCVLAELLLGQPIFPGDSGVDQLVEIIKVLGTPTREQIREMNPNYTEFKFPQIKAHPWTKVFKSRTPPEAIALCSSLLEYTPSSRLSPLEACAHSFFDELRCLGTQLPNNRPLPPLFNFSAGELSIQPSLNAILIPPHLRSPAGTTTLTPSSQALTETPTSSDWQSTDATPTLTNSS
Chain of Glycogen synthase kinase-3 (Homo sapiens) (P49841 whole entry, looked up): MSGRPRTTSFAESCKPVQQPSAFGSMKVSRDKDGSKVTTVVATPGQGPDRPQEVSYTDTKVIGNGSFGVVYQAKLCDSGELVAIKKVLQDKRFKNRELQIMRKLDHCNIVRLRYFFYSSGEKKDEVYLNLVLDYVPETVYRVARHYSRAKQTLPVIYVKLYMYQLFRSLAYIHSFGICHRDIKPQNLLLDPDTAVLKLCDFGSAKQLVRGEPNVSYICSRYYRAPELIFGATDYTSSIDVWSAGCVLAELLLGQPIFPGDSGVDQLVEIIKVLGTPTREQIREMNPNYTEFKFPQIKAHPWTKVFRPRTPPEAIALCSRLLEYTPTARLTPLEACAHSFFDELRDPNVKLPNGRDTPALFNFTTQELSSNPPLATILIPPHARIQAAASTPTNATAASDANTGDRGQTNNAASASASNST

Chain of Tyrosine-protein kinase Lyn (Homo sapiens) (P07948 2-512 limits assumed): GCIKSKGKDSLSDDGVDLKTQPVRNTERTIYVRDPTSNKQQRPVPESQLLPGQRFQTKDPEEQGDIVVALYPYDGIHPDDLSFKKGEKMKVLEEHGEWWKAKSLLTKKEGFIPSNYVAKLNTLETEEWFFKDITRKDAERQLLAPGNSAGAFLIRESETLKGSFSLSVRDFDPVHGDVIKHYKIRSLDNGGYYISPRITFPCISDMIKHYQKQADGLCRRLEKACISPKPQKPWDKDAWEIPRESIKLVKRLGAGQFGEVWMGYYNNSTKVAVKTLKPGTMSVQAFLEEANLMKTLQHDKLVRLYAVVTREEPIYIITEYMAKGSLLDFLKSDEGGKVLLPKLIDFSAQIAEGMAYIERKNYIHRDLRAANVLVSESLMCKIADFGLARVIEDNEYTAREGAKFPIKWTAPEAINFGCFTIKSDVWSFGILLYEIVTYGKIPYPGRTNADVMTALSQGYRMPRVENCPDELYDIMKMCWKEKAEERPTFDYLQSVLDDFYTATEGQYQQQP

Row | Compound | inhibition [1] | inhibition [2] | inhibition [3] | inhibition [4] | IC50 [5] | inhibition [6] | inhibition [7] | inhibition [8] | inhibition [9] | inhibition [10] | inhibition [11] | inhibition [12] | IC50 [13] | inhibition [14] | inhibition [15]
1 | CC(=O)c1nn(-c2ccccc2)cc1C(=O)c1c(C)[nH]c(-c2ccccc2)c1-c1ccccc1 | 3% | 100% | 21% | 22% | 4670 nM | 32% | 33% | 2% | 2% | 3% | 2% | 3% | 120 nM | 21% | 12%
2 | Cc1[nH]c(-c2ccccc2)c(-c2ccccc2)c1-c1nnc(C)c2nn(-c3ccccc3)cc12 | 3% | 83% | 32% | 43% | 3890 nM | 5% | 13% | 1% | 12% | 6% | 1% | 4% | 700 nM | 43% | 2%
3 | Cc1[nH]c(-c2ccccc2)c(-c2ccccc2)c1C(=O)c1coc2ccc(O)cc12 | 21% | 90% | 3% | 32% | 3670 nM | 32% | 32% | 2% | 23% | 4% | 3% | 24% | 450 nM | 32% | 3%

The next compounds have a lower IC50 [5] than those just listed; values first:

Row | inhibition [1] | inhibition [2] | inhibition [3] | inhibition [4] | IC50 [5] | inhibition [6] | inhibition [7] | inhibition [8] | inhibition [9] | inhibition [10] | inhibition [11] | inhibition [12] | IC50 [13] | inhibition [14] | inhibition [15] | Compound
4 | 5% | 85% | 32% | 23% | 3220 nM | 6% | 12% | 2% | 21% | 7% | 2% | 2% | 670 nM | 23% | 13% | CCOC(=O)c1nn(-c2ccccc2)cc1C(=O)c1c(C)[nH]c(-c2ccccc2)c1-c1ccccc1
5 | 24% | 78% | 35% | 44% | 2560 nM | 45% | 67% | 4% | 21% | 7% | 3% | 12% | 910 nM | 12% | 3% | Cc1[nH]c(-c2ccccc2)c(-c2ccccc2)c1C(=O)c1cn(-c2ccccc2)nc1-c1ccccc1
6 | 33% | 80% | 4% | 34% | 2890 nM | 22% | 65% | 3% | 21% | 5% | 2% | 32% | 780 nM | 12% | 2% | Cc1[nH]c(-c2ccccc2)c(-c2ccccc2)c1-c1ccc(NC(=O)c2ccccc2)c(=O)o1
